Results reported in paper PMC8268376, “Effects of Venlafaxine, Risperidone and Febuxostat on Cuprizone-Induced Demyelination, Behavioral Deficits and Oxidative Stress” (International Journal of Molecular Sciences, 2021).

Target: TRPA1 (hTRPA1, transient receptor potential ankyrin 1) (Homo sapiens, UniProt O75762)
Test: Calcium […] fluorescence assay in hTRPA1-transfected vs untransfected HEK293T cells; agonist response blocked by A-967079; significant at […] and above
Format: cell-based

TRPA1 (hTRPA1, transient receptor potential ankyrin 1), sequence (O75762 whole entry): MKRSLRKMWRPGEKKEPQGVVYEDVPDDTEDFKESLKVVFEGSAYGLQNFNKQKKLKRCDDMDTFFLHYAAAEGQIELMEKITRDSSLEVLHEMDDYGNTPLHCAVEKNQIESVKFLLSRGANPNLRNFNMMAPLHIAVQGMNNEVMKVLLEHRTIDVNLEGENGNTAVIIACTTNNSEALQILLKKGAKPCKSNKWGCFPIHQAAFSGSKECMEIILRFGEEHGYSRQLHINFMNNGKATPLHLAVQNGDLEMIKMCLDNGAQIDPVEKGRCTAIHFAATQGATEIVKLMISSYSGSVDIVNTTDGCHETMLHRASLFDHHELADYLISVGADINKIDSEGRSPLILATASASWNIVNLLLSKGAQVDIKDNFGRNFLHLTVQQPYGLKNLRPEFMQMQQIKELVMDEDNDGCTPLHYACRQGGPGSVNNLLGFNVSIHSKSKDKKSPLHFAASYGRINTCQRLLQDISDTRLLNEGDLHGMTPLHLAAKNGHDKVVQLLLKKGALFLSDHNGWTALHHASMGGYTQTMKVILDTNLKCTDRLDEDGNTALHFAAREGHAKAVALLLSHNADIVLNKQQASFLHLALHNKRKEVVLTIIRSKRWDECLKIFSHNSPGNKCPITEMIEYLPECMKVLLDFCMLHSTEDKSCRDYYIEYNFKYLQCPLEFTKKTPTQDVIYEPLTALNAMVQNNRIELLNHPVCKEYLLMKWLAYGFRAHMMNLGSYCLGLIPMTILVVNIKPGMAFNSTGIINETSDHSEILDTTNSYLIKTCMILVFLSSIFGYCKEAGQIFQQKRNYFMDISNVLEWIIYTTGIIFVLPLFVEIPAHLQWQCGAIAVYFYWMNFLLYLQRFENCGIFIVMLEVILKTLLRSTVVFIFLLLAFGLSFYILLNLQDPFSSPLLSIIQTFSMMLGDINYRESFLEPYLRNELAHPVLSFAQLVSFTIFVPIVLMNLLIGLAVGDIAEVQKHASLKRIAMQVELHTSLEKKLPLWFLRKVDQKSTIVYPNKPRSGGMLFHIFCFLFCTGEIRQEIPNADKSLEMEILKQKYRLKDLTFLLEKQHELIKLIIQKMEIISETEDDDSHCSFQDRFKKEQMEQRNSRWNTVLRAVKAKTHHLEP

Cc1nc(-c2ccc(OCC(C)C)c(C#N)c2)sc1C(=O)O [febuxostat]
lowest concentration giving significant TRPA1 calcium response: ~ 126 µM
